A value given as a limit tells only on which side of the number the result lay.

The target in the assay is IGF1-receptor (Homo sapiens, UniProt P08069). As to the kind of experiment: IGF1-Receptor Tyrosine Kinase Assay. Type of assay: biochemical. The following applies: ATP 25 μM; FL-peptide 1.5 μM; IGF1-Receptor 14 nM; 60 min room temperature; Caliper LabChip 3000; read-out: IGF-1R IC50. The procedure: D. IGF1-Receptor Tyrosine Kinase Assay
Sequence of IGF1-receptor (P08069 31-1367): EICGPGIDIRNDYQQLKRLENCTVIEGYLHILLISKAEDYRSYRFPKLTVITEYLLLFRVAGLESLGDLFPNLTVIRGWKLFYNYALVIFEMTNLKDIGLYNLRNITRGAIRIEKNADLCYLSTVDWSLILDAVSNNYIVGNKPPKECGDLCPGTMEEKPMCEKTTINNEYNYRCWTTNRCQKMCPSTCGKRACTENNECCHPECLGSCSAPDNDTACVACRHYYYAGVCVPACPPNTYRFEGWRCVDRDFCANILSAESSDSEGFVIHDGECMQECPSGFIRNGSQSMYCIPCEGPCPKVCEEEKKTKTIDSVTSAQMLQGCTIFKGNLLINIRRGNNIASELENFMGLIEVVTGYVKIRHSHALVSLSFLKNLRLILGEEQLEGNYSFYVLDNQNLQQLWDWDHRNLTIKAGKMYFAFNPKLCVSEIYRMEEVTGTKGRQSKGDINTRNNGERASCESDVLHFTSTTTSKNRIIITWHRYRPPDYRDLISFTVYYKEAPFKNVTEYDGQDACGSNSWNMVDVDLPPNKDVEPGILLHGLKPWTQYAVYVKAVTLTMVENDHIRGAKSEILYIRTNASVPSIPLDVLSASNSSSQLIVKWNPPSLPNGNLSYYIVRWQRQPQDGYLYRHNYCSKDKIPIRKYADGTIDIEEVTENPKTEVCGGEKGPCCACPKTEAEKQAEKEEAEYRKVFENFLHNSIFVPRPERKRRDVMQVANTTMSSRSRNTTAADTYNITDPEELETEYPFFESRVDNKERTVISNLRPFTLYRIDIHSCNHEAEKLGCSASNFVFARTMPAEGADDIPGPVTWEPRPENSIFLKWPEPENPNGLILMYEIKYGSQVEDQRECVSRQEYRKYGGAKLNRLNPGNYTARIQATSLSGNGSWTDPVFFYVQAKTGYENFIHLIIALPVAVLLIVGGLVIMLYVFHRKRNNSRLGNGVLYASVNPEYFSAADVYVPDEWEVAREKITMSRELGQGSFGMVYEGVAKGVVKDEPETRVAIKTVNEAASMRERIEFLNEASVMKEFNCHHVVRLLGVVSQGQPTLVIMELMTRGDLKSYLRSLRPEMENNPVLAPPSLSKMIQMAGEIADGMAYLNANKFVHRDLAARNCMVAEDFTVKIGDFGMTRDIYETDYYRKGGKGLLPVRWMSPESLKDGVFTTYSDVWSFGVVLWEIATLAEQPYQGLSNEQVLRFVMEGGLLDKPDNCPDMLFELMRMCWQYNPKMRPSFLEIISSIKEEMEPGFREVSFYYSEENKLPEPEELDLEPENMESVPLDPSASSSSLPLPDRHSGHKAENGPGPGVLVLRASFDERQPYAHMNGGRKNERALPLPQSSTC
The assays were performed in U-bottom 384-well plates. The final assay volume was 30 μl prepared from 15 μl additions of enzyme and substrates (fluoresceinated IGF1R substrate peptide and ATP) and test compounds in assay buffer (100 mM HEPES pH 7.4, 10 mM MnCl2, 0.015% Brij35 and 4 mM DTT). The reaction was initiated by the combination of IGF1-receptor with substrates and test compounds. The reaction was incubated at room temperature for 60 min. and terminated by adding 30 μl of 35 mM EDTA to each sample. The reaction mixture was analyzed on the Caliper LabChip 3000 by electrophoretic separation of the fluorescent substrate and phosphorylated product. Inhibition data were calculated by comparison to no enzyme control reactions for 100% inhibition and vehicle-only reactions for 0% inhibition. The final concentration of reagents in the assays is ATP, 25 μM; FL-peptide, 1.5 μM; IGF1-Receptor, 14 nM; and DMSO, 1.6%. Dose response curves were generated to determine the concentration required inhibiting 50% of kinase activity (IC50). Compounds were dissolved at 10 mM in dimethylsulfoxide (DMSO) and evaluated at eleven concentrations, each in duplicate. IC50 values were derived by non-linear regression analysis
Compounds described herein were tested in the above assay.
Consider `CCOC(=O)c1cccc(Sc2cc(Nc3ncnn4cccc34)n[nH]2)c1` [Example 1, Ethyl 3-(3-(pyrrolo[1,2-f][1,2,4]triazin-4-ylamino)-1H-pyrazol-5-ylthio)benzoate], for which the IC50 (in general, the concentration at which inhibition is half-maximal) was greater than 25000 nM. Take `O=C(NC1CN(S(=O)(=O)c2ccccc2)C1)c1cccc(Sc2cc(Nc3ncnn4cccc34)n[nH]2)c1` [Example 3, N-(1-(Phenylsulfonyl)azetidin-3-yl)-3-(3-pyrrolo[1,2-f][1,2,4]triazin-4-ylamino-1H-pyrazol-5-ylthio)benzamide]: the IC50 was found to be 12.4 nM. In the case of `NC(=O)c1cccc(Sc2cc(Nc3ncnn4cccc34)n[nH]2)c1` [Example 4, 3-(3-(Pyrrolo[1,2-f][1,2,4]triazin-4-ylamino)-1H-pyrazol-5-ylthio)benzamide] it was 4470 nM; in that of `CC(C)(C)OC(=O)N1CC(NC(=O)c2cccc(Sc3cc(Nc4ncnn5cccc45)n[nH]3)c2)C1` [Example 5], 295 nM; in that of `O=C(NCCc1c[nH]cn1)c1cccc(Sc2cc(Nc3ncnn4cccc34)n[nH]2)c1` [Example 8, N-(2-(1H-Imidazol-4-yl)ethyl)-3-(3-(pyrrolo[1,2-f][1,2,4]triazin-4-ylamino)-1H-pyrazol-5-ylthio)benzamide], 3190 nM.

For `O=C(NC1CN(S(=O)(=O)c2ccc(F)cc2)C1)c1cccc(Sc2cc(Nc3ccccn3)n[nH]2)c1` [Example 10, N-(1-(4-Fluorophenylsulfonyl)azetidin-3-yl)-3-(3-(pyridin-2-ylamino)-1H-pyrazol-5-ylthio)benzamide], the half-inhibitory concentration (IC50) came out at 15.1 nM.
